# Measured values reported in US9512120B2, “Microbicidally active imidazopyridine derivatives” (Syngenta Participations AG, priority 2013, dated 2016).
# Key:
# Plasmopara viticola = Plasmopara viticola / grape / leaf disc preventative; type: in vivo; settings: foliar, grape vine leaf disks, inoculated 1 day after application, assessed 6-8 days after application, read-out: control of Plasmopara viticola (percent disease control compared to untreated)
# [1] = system: Puccinia recondita f. sp. Tritici; assay: Puccinia recondita f. sp. tritici / wheat / leaf disc preventative (brown rust); type: in vivo; settings: foliar, wheat leaf segments cv Kanzler, inoculated 1 day after application, assessed 7-9 days after application, read-out: control of Puccinia recondita f. sp. Tritici (percent disease control compared to untreated)
# Procedure, shortened: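 Preventative test: percent disease control relative to untreated leaf segments was assessed 7-9 days post-application. Wheat (cv Kanzler) leaf discs were treated at 200 ppm and spore-inoculated 1 day afterwards. Discs were held at 19° C and 75% relative humidity under a 12/12 h light cycle.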
# Pyrenophora teres = Pyrenophora teres / barley / leaf disc preventative (net blotch); type: in vivo; settings: foliar, barley leaf segments cv Hasso, inoculated two days after application, assessed 5-7 days after application, read-out: control of Pyrenophora teres (disease control compared to untreated)
# Procedure, shortened: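 Preventative leaf-disc test: 200 ppm spray, then spore inoculation after two days on barley cv Hasso segments. Incubation 20 °C, 65% relative humidity, 12 h light/12 h dark; efficacy rated against untreated checks at 5-7 days post-application.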
# [2] = system: Botryotinia fuckeliana (Botrytis cinerea); assay: Botryotinia fuckeliana (Botrytis cinerea) / liquid culture (gray mould); type: cell-based; settings: Vogels broth, 24° C., 3-4 days after application, read-out: control of Botryotinia fuckeliana (inhibition of growth, photometric)
# Procedure, shortened: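 Test compound was applied at 200 ppm in DMSO, then Vogels nutrient broth containing cryo-stored B. cinerea conidia was added. Photometric growth-inhibition reading followed after 3-4 days at 24 °C.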
# [3] = system: Glomerella lagenarium (Colletotrichum lagenarium); assay: Glomerella lagenarium (Colletotrichum lagenarium) / liquid culture (anthracnose); type: cell-based; settings: Colletotrichum orbiculare, PDB, 24° C., 3-4 days after application, read-out: control of Glomerella lagenarium (inhibition of growth, photometric)
# Procedure, shortened: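 Test compound, delivered in DMSO at an application rate of 200 ppm, was combined with spore-containing PDB. Photometric growth-inhibition measurement followed 3-4 days of incubation at 24° C.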
# [4] = system: Mycosphaerella arachidis (Cercospora arachidicola); assay: Mycosphaerella arachidis (Cercospora arachidicola) / liquid culture (early leaf spot); type: cell-based; settings: PDB, 24° C., 4-5 days after application, read-out: control of Mycosphaerella arachidis (inhibition of growth, photometric)
# Procedure, shortened: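 Conidia suspended in potato dextrose broth and added to test compound from DMSO solution at 200 ppm. Incubated at 24 °C; growth inhibition read photometrically 4-5 days after application.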
# [5] = system: Mycosphaerella graminicola (Septoria tritici); assay: Mycosphaerella graminicola (Septoria tritici) / liquid culture (Septoria blotch); type: cell-based; settings: Zymoseptoria tritici, PDB, 24° C., 4-5 days after application, read-out: control of Mycosphaerella graminicola (inhibition of growth, photometric)
# Procedure, shortened: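 Growth inhibition was read photometrically after 4–5 days at 24 °C. The test compound was applied at 200 ppm from DMSO solution, then PDB broth seeded with conidia taken straight from cryogenic storage was added.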
# [6] = system: Thanatephorus cucumeris (Rhizoctonia solani); assay: Thanatephorus cucumeris (Rhizoctonia solani) / liquid culture (foot rot, damping-off); type: cell-based; settings: PDB, 24° C., 3-4 days after application, read-out: control of Thanatephorus cucumeris (inhibition of growth, photometric)
# Procedure, shortened: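 At 200 ppm, compounds in DMSO were combined with fresh liquid-culture mycelia in PDB and kept at 24° C; photometric measurement of growth inhibition after 3-4 days.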
# [7] = system: Blumeria graminis f. Sp. Tritici (Erysiphe graminis f. Sp. Tritici); assay: Blumeria graminis f. sp. tritici / wheat / leaf disc preventative (powdery mildew on wheat); type: in vivo; settings: foliar, wheat leaf segments cv. Kanzler, inoculated 1 day after application, assessed 6-8 days after application, read-out: control of Blumeria graminis (percent disease control compared to untreated)
# Procedure: Blumeria graminis f. Sp. Tritici (Erysiphe graminis f. Sp. Tritici)/Wheat/Leaf Disc Preventative (Powdery Mildew on Wheat):
# Wheat leaf segments cv. Kanzler were placed on agar in a 24-well plate and sprayed with the formulated test compound diluted in water at an application rate of 200 ppm. The leaf disks were inoculated by shaking powdery mildew infected plants above the test plates 1 day after application. The inoculated leaf disks were incubated at 20° C. and 60% relative humidity under a light regime of 24 h darkness followed by 12 h/12 h (dark/light) in a climate chamber and the activity of a compound was assessed as percent disease control compared to untreated when an appropriate level of disease damage appears on untreated check leaf segments (6-8 days after application). The following compounds gave at least 80% control of Blumeria graminis at 200 ppm when compared to untreated control leaf disks under the same conditions, which show extensive disease development: 2, 13, 23, 50, 59, 61, 67, 75, 85, 86, 89, 90, 93, 102, 103, 107, 134, 136, 137, 138, 139, 141, 145, 151, 153, 154, 163, 173, 174
# [8] = system: Phaeosphaeria nodorum (Septoria nodorum); assay: Phaeosphaeria nodorum (Septoria nodorum) / wheat / leaf disc preventative (glume blotch); type: in vivo; settings: Parastagonospora nodorum, foliar, wheat leaf segments cv Kanzler, inoculated 2 days after application, assessed 5-7 days after application, read-out: control of Phaeosphaeria nodorum (percent disease control compared to untreated)
# Procedure, shortened: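 Wheat leaf segments (cv Kanzler) on agar sprayed with compound at 200 ppm, inoculated with spores 2 days later. Incubated at 20° C., 75% relative humidity, 12/12 h light/dark; percent disease control versus untreated scored 5-7 days after application.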
# Gaeumannomyces graminis = Gaeumannomyces graminis / liquid culture (take-all of cereals); type: cell-based; settings: PDB, 24° C., 4-5 days after application, read-out: control of Gaeumannomyces graminis (inhibition of growth, photometric)
# Procedure, shortened: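 Growth inhibition, measured by photometry 4-5 days post-application at 24 °C, of fungal mycelial fragments in PDB broth. Test compound applied as DMSO solution at 200 ppm.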
# [9] = system: Monographella nivalis (Microdochium nivale); assay: Monographella nivalis (Microdochium nivale) / liquid culture (foot rot cereals); type: cell-based; settings: PDB, 24° C., 4-5 days after application, read-out: control of Monographella nivalis (inhibition of growth, photometric)
# Procedure, shortened: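 Cryostored conidia in potato dextrose broth were added to test compound dispensed from DMSO at 200 ppm. Plates were kept at 24° C, and growth inhibition was read photometrically 4-5 days after application.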
# Pythium ultimum = Pythium ultimum / liquid culture (seedling damping off); type: cell-based; settings: Globisporangium ultimum, potato dextrose broth, 24° C., 2-3 days after application, read-out: control of Pythium ultimum (inhibition of growth, photometric)
# Procedure: Pythium ultimum/Liquid Culture (Seedling Damping Off) Mycelia fragments and oospores of a newly grown liquid culture of the fungus were directly mixed into nutrient broth (potato dextrose broth). After placing a DMSO solution of test compound into a 96-well format microtiter plate at an application rate of 200 ppm, the nutrient broth containing the fungal mycelia/spore mixture was added. The test plates were incubated at 24° C. and the inhibition of growth was determined photometrically 2-3 days after application.
# Sclerotinia sclerotiorum = Sclerotinia sclerotiorum liquid culture (cottony rot / white mold); type: cell-based; settings: PDB, 24° C., 3-4 days after application, read-out: control of Sclerotinia sclerotiorum (inhibition of growth, photometric)
# Procedure, shortened: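 Mycelia fragments of Sclerotinia sclerotiorum in potato dextrose broth were added to compound in DMSO. Cultures incubated at 24° C; growth inhibition determined photometrically 3-4 days after application.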
Structure (SMILES),pest or weed control at 200 ppm (Plasmopara viticola),pest or weed control at 200 ppm [1],pest or weed control at 200 ppm (Pyrenophora teres),inhibition at 20 ppm [2],inhibition at 20 ppm [3],inhibition at 20 ppm [4],inhibition at 20 ppm [5],inhibition at 20 ppm [6],pest or weed control at 200 ppm [7],pest or weed control at 200 ppm [8],inhibition at 20 ppm (Gaeumannomyces graminis),inhibition at 20 ppm [9],inhibition at 20 ppm (Pythium ultimum),inhibition at 20 ppm (Sclerotinia sclerotiorum),melting point
CCn1c(-n2ncnc2N)nc2cncc(C(C)=NOCc3c(F)c(F)c(F)c(F)c3F)c21 [Compound 163],≥ 80%,≥ 80%,≥ 80%,≥ 80%,≥ 80%,≥ 80%,≥ 80%,≥ 80%,≥ 80%,–,–,–,–,–,–
"CCCc1cncc2nc(-n3ncnc3N)n(CCC)c12 [Compound 190, 2-(1,7-dipropylimidazo[4,5-c]pyridin-2-yl)-1,2,4-triazol-3-amine]",–,≥ 80%,≥ 80%,≥ 80%,–,–,≥ 80%,≥ 80%,–,≥ 80%,≥ 80%,≥ 80%,≥ 80%,≥ 80%,–
"CCn1c(-n2ncnc2N)nc2cncc(-c3ccoc3)c21 [Compound 55, 2-[1-ethyl-7-(furan-3-yl)imidazo[4,5-c]pyridin-2-yl]-1,2,4-triazol-3-amine]",–,≥ 80%,≥ 80%,≥ 80%,≥ 80%,≥ 80%,≥ 80%,≥ 80%,–,≥ 80%,≥ 80%,≥ 80%,≥ 80%,–,–
CCn1c(-n2ncnc2N)nc2cncc(C(C)=NOCc3ccc(Cl)cc3)c21 [Compound 145],≥ 80%,≥ 80%,≥ 80%,≥ 80%,≥ 80%,–,≥ 80%,≥ 80%,≥ 80%,≥ 80%,–,≥ 80%,–,≥ 80%,–
CCn1c(-n2ncnc2N)nc2cncc(C(C)=NOCc3ccccc3F)c21 [Compound 137],≥ 80%,≥ 80%,≥ 80%,≥ 80%,≥ 80%,–,≥ 80%,≥ 80%,≥ 80%,≥ 80%,≥ 80%,≥ 80%,–,≥ 80%,159 to 171 °C
"CCn1c(-n2ncnc2N)nc2cncc(-c3cc(F)ccc3F)c21 [Compound 39, 2-[7-(2,5-difluorophenyl)-1-ethylimidazo[4,5-c]pyridin-2-yl]-1,2,4-triazol-3-amine]",–,–,≥ 80%,≥ 80%,≥ 80%,≥ 80%,≥ 80%,≥ 80%,–,≥ 80%,≥ 80%,≥ 80%,≥ 80%,≥ 80%,–
"CCn1c(-n2ncnc2N)nc2cncc(/C(C)=N/OC/C=C(\C)Cl)c21 [Compound 154, 2-[7-[(E)-N-[(E)-3-chlorobut-2-enoxy]-C-methyl-carbonimidoyl]-1-ethyl-imidazo[4,5-c]pyridin-2-yl]-1,2,4-triazol-3-amine]",≥ 80%,≥ 80%,≥ 80%,≥ 80%,≥ 80%,–,≥ 80%,≥ 80%,≥ 80%,–,–,–,–,≥ 80%,–
"CCCc1cncc2nc(-n3ncnc3N)n(CC)c12 [Compound 73, 2-(1-ethyl-7-propylimidazo[4,5-c]pyridin-2-yl)-1,2,4-triazol-3-amine]",–,≥ 80%,≥ 80%,≥ 80%,–,≥ 80%,≥ 80%,≥ 80%,–,≥ 80%,≥ 80%,≥ 80%,≥ 80%,≥ 80%,–
CCn1c(-n2ncnc2N)nc2cncc(C(C)=NOCc3ccc(C)cc3)c21 [Compound 139],≥ 80%,≥ 80%,≥ 80%,≥ 80%,≥ 80%,≥ 80%,≥ 80%,≥ 80%,≥ 80%,–,≥ 80%,≥ 80%,–,≥ 80%,–
C=C(Cl)CO/N=C(/C)c1cncc2nc(-n3ncnc3N)n(CC)c12 [Compound 151],≥ 80%,≥ 80%,≥ 80%,≥ 80%,≥ 80%,–,≥ 80%,≥ 80%,≥ 80%,≥ 80%,–,≥ 80%,–,≥ 80%,–
"CCn1c(-n2ncnc2N)nc2cncc(-c3ccccc3Cl)c21 [Compound 33, 2-[7-(2-chlorophenyl)-1-ethylimidazo[4,5-c]pyridin-2-yl]-1,2,4-triazol-3-amine]",–,≥ 80%,≥ 80%,≥ 80%,≥ 80%,≥ 80%,≥ 80%,≥ 80%,–,≥ 80%,–,≥ 80%,≥ 80%,≥ 80%,–
